Columns and labels:
[1] = target: T1, Skp1 interaction with NIPA (Homo sapiens, UniProt P63208); experiment: Cell-based FRET assay in HEK293 cells; conditions: 4 hrs, increasing concentrations
T1 construct: host or cells: HEK293

recombinant GST = recombinant GST (Schistosoma japonicum, UniProt P08515); experiment: LC-MS/MS analysis of in vitro binding, negative control protein
Skp1^WT = target: T2, Skp1^WT (Homo sapiens, UniProt P63208); experiment: SPRi assay; type: binding
T2 construct: recombinantly purify intact (Skp1^WT) and truncate (ΔSkp1^1−140; lacking H8-helix) forms of Skp1; His6; made in house; host or cells: Escherichia coli BL21 (DE3)
T2 sequence (P63208 whole entry, the tested form may be a part): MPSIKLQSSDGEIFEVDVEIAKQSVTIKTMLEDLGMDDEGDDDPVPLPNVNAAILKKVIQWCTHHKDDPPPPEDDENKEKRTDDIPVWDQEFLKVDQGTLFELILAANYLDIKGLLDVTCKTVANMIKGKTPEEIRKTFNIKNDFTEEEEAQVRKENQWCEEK
Protocol: (§1) Freshly deposited gold coated standard SPRi chips/slides (Plexera, LLC) were cleaned, and compound(s) at 10 mM concentration in 100% DMSO were spotted on the chips using a micropipette. After this, the slides were left for complete evaporation of DMSO (under vacuum) at room temperature for 2 hrs. After printing, the slides were exposed to UV irradiation 2.4 J/cm^2 (365 nm) in a UV chamber (Amersham life science). The slides were subsequently washed with DMSO, ethanol, and finally with distilled water for 15 minutes (ultrasonically), respectively, to remove non-covalently bound compounds. After drying with nitrogen, the slides were assembled with flow cell and then mounted on SPRi instrument for measurement, or stored at 4°C to be used for later experiments.
All the experiments were carried out using the PlexArray® HT system (Plexera, LLC), which is based on surface plasmon resonance imaging. Oval regions of interests (ROIs) were set as 9 pixels × 7 pixels area in imaging area. ROIs of vehicle (DMSO) were used as controls for measurement of specific signals. All samples were injected with an association and dissociation flow rate of 3 μL s^−1 and at 25°C. A 1:3 mixture of glycine. HCL (pH 4.2) and 0.5% (v/v) SDS, respectively, was used to regenerate the surface and remove bound proteins from the small molecules enabling the sensor chip to be reused for additional analyte injections. […]

A549 cells [2] = experiment: Caspase-Glo 3/7 activity; type: cell-based, human; conditions: dose- and time-dependent treatment
Protocol: The activities of caspase-3/7, −8 and −9 were measured using Caspase-Glo® 3/7,8, and 9 assay kits (Promega, Madison, WI, USA) according to the manufacturer’s protocol. Briefly, the cells were plated over-night in a white 384 well microplate, and then treated as indicated with Z0933M. After treatment, 25 μL of each caspase substrate was added and incubated at room temperature for 30 min. Upon activation of caspase in the apoptotic cells, the substrate will give a luminescence signal after cleavage of the aminoluciferin-labelled synthetic tetrapeptide. Luminescent signals were detected using an EnSpire multimode plate reader (PerkinElmer). For inhibitor interventions and Skp1 overexpression, the experiments were performed in 96 well format.

mycobacterial = experiment: Anti-mycobacterial evaluation; type: cell-based
H358 (p53 null) cells = experiment: Flow cytometric analysis of apoptosis (annexin V/PI); type: cell-based; conditions: 10 μM dose
Skp1 (V123D) = target: T3, Skp1 (V123D) (Homo sapiens, UniProt P63208, V123D); experiment: SPRi assay, Skp1 mutant; type: binding
T3 construct: His6; made in house; host or cells: Escherichia coli BL21 (DE3)
T3 sequence (P63208 whole entry V123D): as the sequence (P63208 whole entry, the tested form may be a part) above, with V123D counted along it
Protocol: as §1
(§2) All the experiments were carried out using the PlexArray® HT system (Plexera, LLC), which is based on surface plasmon resonance imaging. Oval regions of interests (ROIs) were set as 9 pixels × 7 pixels area in imaging area. ROIs of vehicle (DMSO) were used as controls for measurement of specific signals. All samples were injected with an association and dissociation flow rate of 3 μL s^−1 and at 25°C. A 1:3 mixture of glycine. HCL (pH 4.2) and 0.5% (v/v) SDS, respectively, was used to regenerate the surface and remove bound proteins from the small molecules enabling the sensor chip to be reused for additional analyte injections.
(§3) The Tris buffer (10 mM Tris-HCl pH 8.0, 100 mM NaCl), without any reducing agent, was used as both analyte and running buffer. Purified recombinant proteins, including Skp1^WT, ΔSkp1^1−140, and any of the desired mutant(s), were in the Tris buffer (10 mM Tris-HCl pH 8.0, 100 mM NaCl). For testing the compound(s), multiple concentrations (0.5 μM, 1 μM, 4 μM and 8 μM) of Skp1^WT or ΔSkp1^1−140 were flowed on the SPRi instrument as analyte to get accurate kinetic parameters. A typical sample injection cycle consists of 300 seconds association phase with the analyte solution and 400 seconds dissociation phase with running buffer at 3 μL s^−1 flow rate. Other purified proteins such as mutant forms of Skp1 were tested to confirm binding pocket specificity. The highest concentration tested for each protein was 8 μM. For data analysis, we choose two software packages, ORIGIN Lab and Data Analysis Module (DAM) of Plexera. All data from SPRi reported here are after subtraction of the background intensity/signal by DAM software. In short, the entire concentration of analyte was fitted with a 1:1 Langmuir interaction integrated rate equation to obtain the kinetic constants.

Skp1 (F101A) = target: T4, Skp1 (F101A) (Homo sapiens, UniProt P63208, F101A); experiment: SPRi assay, Skp1 mutant; type: binding
T4 construct: His6; made in house; host or cells: Escherichia coli BL21 (DE3)
T4 sequence (P63208 whole entry F101A): as the sequence (P63208 whole entry, the tested form may be a part) above, with F101A counted along it
Protocol: as §1, §2, §3

Skp1^F139A = target: T5, Skp1^F139A (Homo sapiens, UniProt P63208, F139A); experiment: SPRi assay, Skp1 mutant; type: binding
T5 construct: His6; made in house; host or cells: Escherichia coli BL21 (DE3)
T5 sequence (P63208 whole entry F139A): as the sequence (P63208 whole entry, the tested form may be a part) above, with F139A counted along it
Protocol: as §1, §2, §3

Skp1 (F101W_V123T) = target: T6, Skp1 (F101W_V123T) (Homo sapiens, UniProt P63208, F101W/V123T); experiment: SPRi assay, Skp1 mutant; type: binding
T6 construct: His6; made in house; host or cells: Escherichia coli BL21 (DE3)
T6 sequence (P63208 whole entry F101W/V123T): as the sequence (P63208 whole entry, the tested form may be a part) above, with F101W, V123T counted along it
Protocol: as §1, §2, §3

Skp1 (F139D) = target: T7, Skp1 (F139D) (Homo sapiens, UniProt P63208, F139D); experiment: SPRi assay, Skp1 mutant; type: binding
T7 construct: His6; made in house; host or cells: Escherichia coli BL21 (DE3)
T7 sequence (P63208 whole entry F139D): as the sequence (P63208 whole entry, the tested form may be a part) above, with F139D counted along it
Protocol: as §1, §2, §3

Skp1 (Q97A) = target: T8, Skp1 (Q97A) (Homo sapiens, UniProt P63208, Q97A); experiment: SPRi assay, Skp1 mutant; type: binding
T8 construct: His6; made in house; host or cells: Escherichia coli BL21 (DE3)
T8 sequence (P63208 whole entry Q97A): as the sequence (P63208 whole entry, the tested form may be a part) above, with Q97A counted along it
Protocol: as §1, §2, §3

Skp1 (F101A_F139A) = target: T9, Skp1 (F101A_F139A) (Homo sapiens, UniProt P63208, F101A/F139A); experiment: SPRi assay, Skp1 mutant; type: binding
T9 construct: His6; made in house; host or cells: Escherichia coli BL21 (DE3)
T9 sequence (P63208 whole entry F101A/F139A): as the sequence (P63208 whole entry, the tested form may be a part) above, with F101A, F139A counted along it
Protocol: as §1, §2, §3

A549 cells [3] = experiment: Flow cytometric analysis of cell cycle; type: cell-based, human; conditions: 0.5 μM, asynchronized and synchronized A549 cells
Protocol: Both asynchronous and synchronous cells were analyzed by flow cytometry with DNA staining to determine the total amount of DNA. For asynchronous analysis, A549 cells were seeded into six-well plates at a density of 6 × 10^5 cells/well. After 14 to 16 hrs of seeding, the cells were treated with indicated concentrations of Z0933M for 24 hrs. Then, the cells were harvested, washed twice with cold PBS, and fixed in cold 70% ethanol on ice (around 4°C) for 4 hrs. Next, the cells were washed twice with cold PBS, resuspended with cold PBS containing […] RnaseA (Sigma), and incubated for 30 min at 37°C. Then, PBS containing […] propidium iodide (PI) (Sigma) was directly added, the cells were mixed gently, and incubated for 5–10 min at room temperature in the dark. Finally, the cell-cycle phase distribution was analyzed in three different experiments using flow cytometry (BD Biosciences, San Diego, CA, USA). At least 10,000 events/sample were acquired. Assays were conducted three times independently. The data was analyzed by FlowJo V10 software. For synchronous cell cycle analysis, cells were synchronized to G1/S boundary by a double-thymidine blockade ([Liu et al., 2015]), and then exposed to Z0933M for time-dependent or dose-dependent analysis. […] Cell cycle distribution was analyzed by flow cytometry (BD Biosciences, San Diego, CA, USA) and FlowJo V10 software.

T1 sequence (P63208 whole entry): as the sequence (P63208 whole entry, the tested form may be a part) above
Sequence of recombinant GST (P08515 2-218 limits assumed): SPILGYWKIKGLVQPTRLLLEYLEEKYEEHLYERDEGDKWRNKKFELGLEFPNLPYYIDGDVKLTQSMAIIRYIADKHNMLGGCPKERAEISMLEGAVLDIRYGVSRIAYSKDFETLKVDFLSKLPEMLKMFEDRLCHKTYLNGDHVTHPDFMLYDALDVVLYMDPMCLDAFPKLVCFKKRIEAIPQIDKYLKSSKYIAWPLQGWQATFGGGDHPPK

Nc1ccc(-c2nc3ccccc3c3[nH]c4ccccc4c23)cc1 [Z0933M]
inhibition of Skp1-NIPA interaction (FRET ratio) [1]: significant inhibition
presence in mass spectra (non-specific binding) (recombinant GST): absent
Kd (Skp1^WT; SPRi, Skp1^WT): 54.7 ± 6.68 nM
Kd (Skp1^WT; as given in the summary): ~54 nM
caspase 3/7 activity (A549 cells [2]): dose- and time-dependently induced caspase 3/7 activity
MIC (mycobacterial): > 30 µM
induction of apoptosis (H358 (p53 null) cells): could not induce apoptosis
Kd (Skp1 (V123D)): 1270 ± 95.5 nM
Kd (Skp1 (F101A)): 374 ± 45.6 nM
Kd (Skp1^F139A): 455 ± 47.7 nM
Kd (Skp1 (F101W_V123T)): 336 ± 36.8 nM
Kd (Skp1 (F139D)): 1140 ± 95.5 nM
Kd (Skp1 (Q97A)): 477 ± 4.95 nM
Kd (Skp1 (F101A_F139A)): 799 ± 54.8 nM
cell cycle effect (A549 cells [3]): complete G2/M arrest

Reference: article PMC9249674, “A small-molecule Skp1 inhibitor elicits cell death by p53-dependent mechanism” (iScience, 2022)
